Read-outs that look alike come from different tables or passages of the source. Starred links: 1 amine or outer side, 2 acyl side, 3 side chain; linkers in the order of their positions; H or OH if unused. Positions of bridges follow the written chain, without caps; N, C: chain ends. Non-standard residues stand in square brackets, D forms with d. Residues, ends and D or L forms follow the SMILES beside them. Chains are numbered I, II in the order given. Actinocin(9to1) = Cc1c2oc3c(C)ccc(C(=O)[*:1])c3nc-2c(C(=O)[*:2])c(N)c1=O; NMeV = CN[C@H](C(=O)O)C(C)C; Sar = CNCC(=O)O
Tests used:
[1] = test system: Pol-II transcription in HCT116 p53+/+ cells; experiment: Pol-II transcripts (18 house-keeping genes) by qPCR in cells expressing wt p53; type: cell-based, human; conditions: cells expressing wt p53, 30 min; concentrations as Figure S2
Experimental: (§1) Cells were grown until 70% confluent and then treated with compounds for 30 min. The following concentrations were used: ActD: AD1–3 nM; AD2–3 µM; Camptothecin (CPT): 8 µM; ethidium bromide (EB): 40 µM; crystal violet (CV): 20 µM; Pro: 2 µM; CX5461: 5 µM. RNA was purified using the RNeasy purification kit (Qiagen) following the manufacturer’s instructions and the RNA concentration was determined spectroscopically. A total 1 µg of RNA was converted to cDNA using the High Capacity RNA-to-cDNA reverse transcriptase kit (Applied Biosystems, Waltham, MA, USA). Then 47/45S pre-rRNA levels were analyzed on the LighCycler 480 thermocycler (Roche) using primers and conditions described previously.
(§2) Pol-II and Pol-III transcripts were analyzed as described previously. All signals were normalized to 18S rRNA level. The standard deviation was calculated from three independent experiments.
(§3) As a complimentary approach we also measured the effect of intercalators and grove binders on transcription by Pol-II and Pol-III by determining relative expression levels of 18 house-keeping genes (the Human Housekeeper reference gene plate, Roche) and of three Pol-III dependent genes in intercalator treated and untreated HCT116 p53^−/− and p53^+/+ cells as described previously.
Figure S2. […] Total RNA was isolated, reverse transcribed and analysed by qPCR. […]

[2] = test system: nascent RNA synthesis in HCT116 p53−/− cells; experiment: Nascent RNA detection in cells by 5EU incorporation (click labelling, confocal microscopy); type: cell-based, human; conditions: 30 min treatment then 1 h 5EU
Experimental: Cells were grown until 50–60% confluent on sterilized glass slides (Superfrost® Plus microscope slides, Menzel-Glaser) and then were treated with compounds or vehicle (as indicated) for 30 min, followed by the addition of 5EU (5-Ethynyl-uridine, 1 mM final concentration) and further incubation for 1 h. The following concentrations were used: Actinomycin D (ActD): 3 µM; ethidium bromide (EB): 40 µM; proflavine (Pro): 2 µM; CX5461: 5 µM.
Cells were fixed with 3.7% paraformaldehyde and permeabilized with 0.5% Triton X-100 in PBS. Nascent RNA was fluorescently labelled using Click-IT® Cell Reaction Buffer Kit (Invitrogen, Waltham, MA, USA) supplemented with Cy5 Azide (Sigma Aldrich) according to manufacturer’s instruction. Nuclei were stained with Hoechst 33342 and images were acquired with a Leica TCS SP5 confocal microscope equipped with an x63 oil-filled objective. Leica Application Suite X (LAS X) software was used for quantification of 5EU incorporation. Box-and-whisker plots of quantification of 5EU incorporation were obtained with Excel. They show the median, the 25% and 75% quantiles, as well as outliers.
Although we see no significant effect of the intercalators and grove-binders on specific Pol-II transcription in vitro we performed experiments aiming to explore effect of these compounds on general level of Pol-II/III transcription in cells. To this end we used two approaches. Firstly, we measure the level of nascent RNA synthesis in […] p53^−/− cells treated with proflavine, ethidium bromide, CX-5461 (specific inhibitor of Pol-I transcription) at concentrations sufficient to inhibit about 90% of Pol-I transcription as shown in Figure 5A. As a control we used high concentration of ActD (3µM) that inhibits activity of all […] polymerases. Cells were treated with the selected compounds or a vehicle for 30 min and then 5EU (5-Ethynyl-uridine) was added and incubation was continued for another hour. During this time, 5EU is incorporated into any newly synthesized RNA, and the level of incorporation can later be assessed using a combination of “click” approach and confocal microscopy.

[3] = test system: Pol II/III transcription in HCT116 p53−/− cells; experiment: Pol-II (18 house-keeping genes) and Pol-III transcripts by qPCR in p53 null cells; type: cell-based, human; conditions: 30 min
Experimental: as §1, §2, §3

[4] = test system: Pol-I transcription (rRNA synthesis) in HCT116 p53−/− cells; experiment: IC50 of Pol-I transcription (rRNA synthesis) in cells; type: cell-based, human; conditions: Homo sapiens
Experimental: as §1
Next, we determined IC50 concentrations for EtBr, Pro, CPT, DAPI and CV in cells by measuring the level of Pol-I transcription at various compound concentrations (Table 2). For this assay we used the HCT116 p53^−/− cell line to avoid any effect of p53 dependent repression of Pol-I transcription.

[5] = test system: Pol-I specific transcription; experiment: Pol-I specific transcription in vitro with or without Top 1 (purified GTFs or HeLa NE; immobilized linear or supercoiled template); type: biochemical, human; conditions: GTFs lacking Top 1 + immobilized linear template, HeLa NE + supercoiled plasmid
Experimental: (§4) Specific Pol I driven transcription reactions were performed as described using 200 ng of supercoiled plasmid DNA or immobilized rDNA promoter. Reactions were supplemented with 1 µL HeLa nuclear extract or with highly purified general transcription factors (GTF: 2 µL SL1, 2.5 µL Pol-I and 0.1 µL UBF). S1 nuclease protection was performed as described with a 60 bp ^32P-5′-end labelled oligonucleotide containing a sequence identical to the region between −20 and +40 of the template strand in the human rRNA gene promoter. […] The standard deviations were calculated from three independent experiments.

[6] = test system: Pol-I specific transcription (human rRNA gene promoter); experiment: In vitro Pol-I specific (promoter-driven) transcription assay, HeLa nuclear extract, S1 nuclease protection; type: biochemical; conditions: 1 µL HeLa nuclear extract, 100 ng plasmid DNA containing rRNA promoter, triplicates
Experimental: as §4, with “Specific Pol I driven transcription reactions were performed as described using 200 ng of supercoiled plasmid DNA or immobilized rDNA promoter.” left out
We tested a range of DNA intercalators and minor/major groove binders for the potential to inhibit Pol-I and determined IC50 for each drug using an in vitro Pol-I specific transcription assay. This assay primarily measures the efficiency of the initial stages of transcription which include preinitiation complex (PIC) formation, first phosphodiester bond synthesis and promoter clearance (see reviews and for a detailed description of the Pol-I transcription cycle). The reactions were supplemented with supercoiled rDNA template and HeLa nuclear extract (NE) and the level of specific transcript was determined by S1 nuclease protection assay as described.

[7] = test system: UBF occupancy at the rDNA, HCT116 p53−/− cells; experiment: ChIP of the rDNA repeat: UBF occupancy; type: cell-based, human; conditions: 30 min at IC50 in cells: EB 9.16 µM; CV 5 µM; Pro 0.5 µM
Experimental: ChIP assays were carried out as described previously. In brief, cells were grown until 70% confluent, then treated with compounds for 30 min. The following concentrations were used: ethidium bromide (EB)—9.16 µM; crystal violet (CV)—5 µM; proflavine (Pro)—0.5 µM. Cells were cross-linked with formaldehyde (final concentration 1%) for 10 min, and the cross-linking stopped by the addition of glycine (final concentration 0.125 M) for 5 min. Cross-linked chromatin was sheared using a Biorupter (Diagenode, Liege, Belgium) until 300-base pair average size. Immunoprecipitation was carried out using chromatin isolated from 1 × 10^6 cells, antibodies listed in Supplementary Table S2 and 30 μL of Protein A/Protein G magnetic beads (Invitrogen). Purified immunoprecipitated DNA was analyzed by two tetraplex quantitative PCR panels designed for eight regions of the rDNA repeat; promoter, intergenic spacer 4 (IGS4), 18S, 5.8S, 28S, terminator, IGS1, and 5′externally transcribed spacer (ETS). […] Signal were quantified using internal standards and specific signals were calculated as a difference between the signals from the specific antibody and from the negative control (an appropriate IgG). Results were expressed as the amount relative to input chromatin and normalized to control IgG levels, with the standard deviations calculated from three independent ChIP experiments. […]

[8] = test system: Pol-I transcription (47/45S pre-rRNA) in HCT116 p53−/− cells; experiment: 47/45S pre-rRNA level in cells by qPCR; type: cell-based, human; conditions: 30 min, CPT 8 µM, EB 40 µM, CV 20 µM, Pro 2 µM, CX5461 5 µM (Figure 5A)
Experimental: as §1, §2

Cc1c2oc3c(C)ccc(C(=O)N[C@@H]4C(=O)N[C@H](C(C)C)C(=O)N5CCC[C@H]5C(=O)N(C)CC(=O)N(C)[C@@H](C(C)C)C(=O)O[C@@H]4C)c3nc-2c(C(=O)N[C@@H]2C(=O)N[C@H](C(C)C)C(=O)N3CCC[C@H]3C(=O)N(C)CC(=O)N(C)[C@@H](C(C)C)C(=O)O[C@@H]2C)c(N)c1=O [ActD, Actinomycin D] (I: T[dV]P[Sar][NMeV] / II: T[dV]P[Sar][NMeV]; ester I:1-I:C, II:1-II:C; linker I:N-II:N via Actinocin(9to1))
effect on mRNA levels of the genes tested [1]: quite significant
5EU incorporation (RNA synthesis) ([2]; 3 μM): almost completely abolished
effect on Pol II/III transcription ([3]; AD1 3 nM ActD, CPT 8 µM, EB 40 µM, CV 20 µM, Pro 2 µM): did not repress
transcription of Pol-II targets ([3]; high concentration of ActD (AD2, 3 µM)): causes repression of transcription of all Pol-II targets

CC[C@@]1(O)C(=O)OCc2c1cc1n(c2=O)Cc2cc3ccccc3nc2-1 [Camptothecin]
IC50 ([4]; HCT-116, read-out: IC50 (rRNA Synthesis)): 1990 nM
effect on Pol-I specific transcription [5]: represses Pol-I specific transcription under all conditions

Nc1ccc2cc3ccc(N)cc3nc2c1 [Proflavine, proflavine]
IC50 ([4]; HCT-116, p53 null HCT116 cells, triplicates, total RNA analyzed by S1 nuclease protection assay, read-out: IC50 (rRNA Synthesis)): 476 nM
IC50 [6]: 350 nM
distribution (nucleolar localization) of nascent RNAs ([2]; EB 40 µM, Pro 2 µM, CX5461 5 µM): affected the distribution of nascent RNAs
inhibition of all transcription (5EU incorporation), effect of ActD set to be 100% inhibition ([2]; HCT116 p53−/− cells, EB 40 µM, Pro 2 µM, CX5461 5 µM): 48%
UBF occupancy [7]: affected
inhibition of Pol-I transcription [8]: about 90%

Source: publication PMC8466728, “DNA Intercalators Inhibit Eukaryotic Ribosomal RNA Synthesis by Impairing the Initiation of Transcription” (Genes, 2021)
